Measured values taken from ChEMBL document CHEMBL5236634, “Membrane-Targeting Neolignan-Antimicrobial Peptide Mimic Conjugates to Combat Methicillin-Resistant Staphylococcus aureus (MRSA) Infections” (J Med Chem, 2022).
The source made the active and inactive calls. The calls are words filed in the database; no cut-off is given here.

Assays:
[1] = Toxicity in BALB/c mouse assessed as effect on platelet count at 50 mg/kg, ip administered as single dose and measured after 24 hrs; assay type: organism-based; settings: in vivo
[2] = system: Staphylococcus aureus; assay: Antibacterial activity against methicillin-resistant Staphylococcus aureus 15 infected in BALB/c mouse sepsis model assessed as survival rate at 20 mg/kg, ip administered for 7 days; assay type: functional; settings: Staphylococcus aureus, 15, 168 h, time 7 day
[3] = system: Staphylococcus aureus; assay: Antibacterial activity against methicillin-resistant Staphylococcus aureus 15 incubated for 16 to 18 hrs in presence of cardiolipin by checkerboard microdilution assay; assay type: functional, organism-based; settings: time 16-18 hrs
[4] = system: Staphylococcus aureus; assay: Antibacterial activity against methicillin-resistant Staphylococcus aureus 15 infected in BALB/c mouse sepsis model assessed as reduction in inflammatory factors in organs at 10 mg/kg, ip measured after 48 hrs by H & E staining based analysis; assay type: functional, organism-based
[5] = system: Staphylococcus aureus; assay: Inhibition of biofilm formation in Staphylococcus aureus ATCC 29213 incubated for 24 hrs by crystalline violet staining based analysis; assay type: functional, organism-based; settings: dose 0.125-64 µg/ml
[6] = system: Escherichia coli; assay: Antibacterial activity against Escherichia coli ATCC 25922 assessed as inhibition of bacterial growth incubated for 16 to 20 hrs by CLSI based microdilution method; assay type: functional; settings: time 16-20 hrs
[7] = system: Staphylococcus aureus; assay: Antibacterial activity against Staphylococcus aureus ATCC 29213 assessed as inhibition of bacterial growth incubated for 16 to 20 hrs by CLSI based microdilution method; assay type: functional; settings: time 16-20 hrs
[8] = system: Cell membrane; assay: Induction of cell membrane disruption in methicillin-resistant Staphylococcus aureus 15 assessed as protein leakage at 1 to 6 times MIC incubated for 1 to 2 hrs; assay type: subcellular; settings: time 1-2 hrs
[9] = system: Staphylococcus aureus; assay: Antibacterial activity against methicillin-resistant Staphylococcus aureus 15 incubated for 16 to 18 hrs in presence of phosphatidylglycerol by checkerboard microdilution assay; assay type: functional, organism-based; settings: time 16-18 hrs
[10] = system: Staphylococcus aureus; assay: Antibacterial activity against methicillin-resistant Staphylococcus aureus 15 infected in BALB/c mouse sepsis model assessed as improvement in survival rate at 5 to 10 mg/kg, ip administered for 7 days; assay type: functional, organism-based; settings: dose 5-10 mg/kg, time 7.0 day
[11] = system: Staphylococcus aureus; assay: Induction of ROS production in methicillin-resistant Staphylococcus aureus 15 assessed as accumulation of intracellular ROS incubated for 30 mins by DCFH-DA staining based fluorescence assay; assay type: functional, organism-based; settings: dose 2-64 µg/ml
[12] = system: Staphylococcus aureus; assay: Antibacterial activity against methicillin-resistant Staphylococcus aureus 15 infected in BALB/c mouse sepsis model assessed as reduction in bacterial load in spleen at 10 mg/kg, ip measured after 48 hrs; assay type: functional, organism-based
[13] = system: Staphylococcus aureus; assay: Bactericidal activity against methicillin-resistant Staphylococcus aureus 15 at 4 to 8 times MIC measured after 3 hrs by time kill assay; assay type: functional
[14] = system: Staphylococcus aureus; assay: Antibacterial activity against methicillin-resistant Staphylococcus aureus 15 infected in BALB/c mouse sepsis model assessed as normalization of cell morphology in liver at 10 mg/kg, ip measured after 48 hrs by H & E staining based analysis; assay type: functional, organism-based
[15] = Toxicity in BALB/c mouse assessed as effect on urea level at 50 mg/kg, ip administered as single dose and measured after 24 hrs; assay type: organism-based; settings: in vivo
[16] = system: Salmonella enterica; assay: Antibacterial activity against Salmonella enterica H9812 assessed as inhibition of bacterial growth incubated for 16 to 20 hrs by CLSI based microdilution method; assay type: functional; settings: time 16-20 hrs
[17] = system: Staphylococcus aureus; assay: Antibacterial activity against methicillin-resistant Staphylococcus aureus 15 infected in BALB/c mouse sepsis model assessed as reduction in bacterial load in kidney at 10 mg/kg, ip measured after 48 hrs; assay type: functional, organism-based
[18] = system: Staphylococcus aureus; assay: Antibacterial activity against methicillin-resistant Staphylococcus aureus 15 infected in BALB/c mouse sepsis model assessed as normalization of cell morphology in kidney at 10 mg/kg, ip measured after 48 hrs by H & E staining based analysis; assay type: functional, organism-based
[19] = system: Staphylococcus aureus; assay: Inhibition of biofilm formation in Staphylococcus aureus ATCC 29213 assessed as destruction of formed biofilm at 0 to 128 ug/ml incubated for 24 hrs by crystal violet staining based analysis; assay type: functional, organism-based; settings: dose 0-128 µg/ml
[20] = system: Cell membrane; assay: Induction of membrane depolarization in methicillin-resistant Staphylococcus aureus 15 assessed as increase in fluorescence intensity at 32 ug/ml by DiSC3-5 dye based fluorescence method; assay type: subcellular; settings: dose 32.0 µg/ml
[21] = system: Staphylococcus aureus; assay: Induction of drug resistance in Staphylococcus aureus ATCC 29213 assessed as increase in MIC at 0.5 times MIC measured for 20 days by CLSI based microdilution method; assay type: functional, organism-based; settings: time 20.0 day
[22] = Toxicity in BALB/c mouse assessed as effect on creatinine level at 50 mg/kg, ip administered as single dose and measured after 24 hrs; assay type: organism-based; settings: in vivo
[23] = Toxicity in BALB/c mouse assessed as effect on WBC count at 50 mg/kg, ip administered as single dose and measured after 24 hrs; assay type: organism-based; settings: in vivo
[24] = system: Staphylococcus aureus; assay: Antibiofilm activity against Staphylococcus aureus ATCC 29213 assessed as reduction in live bacteria in biofilm incubated for 24 hrs by crystal violet staining based analysis; assay type: functional, organism-based; settings: dose 0-128 µg/ml
[25] = system: Cell membrane; assay: Disruption of membrane integrity in methicillin-resistant Staphylococcus aureus 15 assessed as increase in fluorescence intensity at 32 ug/ml measured immediately by Sytox green based fluorescence method; assay type: subcellular; settings: dose 32.0 µg/ml
[26] = Hemolytic activity in sheep RBC incubated for 1 hr by absorbance based analysis; assay type: toxicity, cell-based, Ovis aries, Erythrocyte; settings: sheep red blood cells
[27] = system: Staphylococcus aureus; assay: Inhibition of biofilm formation in Staphylococcus aureus ATCC 29213 at 64 ug/ml incubated for 24 hrs by crystalline violet staining based analysis; assay type: functional
[28] = Toxicity in BALB/c mouse assessed as effect on mean corpuscular volume at 50 mg/kg, ip administered as single dose and measured after 24 hrs; assay type: organism-based; settings: in vivo
[29] = system: Staphylococcus aureus; assay: Antibacterial activity against methicillin-resistant Staphylococcus aureus 15 infected in BALB/c mouse sepsis model assessed as normalization of cell morphology in spleen at 10 mg/kg, ip measured after 48 hrs by H & E staining based analysis; assay type: functional, organism-based
[30] = Toxicity in BALB/c mouse assessed as effect on RBC count at 50 mg/kg, ip administered as single dose and measured after 24 hrs; assay type: organism-based, Erythrocyte; settings: in vivo
[31] = system: Micrococcus luteus; assay: Antibacterial activity against Micrococcus luteus assessed as inhibition of bacterial growth incubated for 16 to 20 hrs by CLSI based microdilution method; assay type: functional; settings: time 16-20 hrs
[32] = Toxicity in BALB/c mouse assessed as effect on hematocrit level at 50 mg/kg, ip administered as single dose and measured after 24 hrs; assay type: organism-based; settings: in vivo
[33] = system: Salmonella enterica; assay: Antibacterial activity against Salmonella enterica 8389 assessed as inhibition of bacterial growth incubated for 16 to 20 hrs by CLSI based microdilution method; assay type: functional; settings: time 16-20 hrs
[34] = system: Staphylococcus aureus; assay: Bactericidal activity against Staphylococcus aureus ATCC 29213 at 4 to 8 times MIC measured for 24 hrs by time kill assay; assay type: functional, organism-based
[35] = system: Cell membrane; assay: Disruption of membrane integrity in methicillin-resistant Staphylococcus aureus 15 at 32 ug/ml by SEM analysis; assay type: subcellular; settings: dose 32.0 µg/ml
[36] = Toxicity in BALB/c mouse assessed as effect on albumin level at 50 mg/kg, ip administered as single dose and measured after 24 hrs; assay type: organism-based; settings: in vivo
[37] = system: Staphylococcus aureus; assay: Antibacterial activity against methicillin-resistant Staphylococcus aureus 15 infected in BALB/c mouse sepsis model assessed as reduction in bacterial load in liver at 10 mg/kg, ip measured after 48 hrs; assay type: functional, organism-based

SMILES	Activity [1]	survival at 20 mg/kg [2]	Activity [3]	Activity [4]	inhibition [5]	MIC [6]	MIC [7]	Activity [8]	Activity [9]	Activity [10]	Activity [11]	Activity [12]	Activity [13]	Activity [14]	Activity [15]	MIC [16]	Activity [17]	Activity [18]	inhibition [19]	Activity [20]	further results
C=CCc1cccc(Oc2ccc(C(=O)CC)cc2)c1OCC[N+](C)(C)CC(=O)NCCCCCC.[Br-]	Non-Toxic	100%	inactive	Active	Dose-Dependent Effect	8 µg/mL	2 µg/mL	Active	inactive	Active	Dose-Dependent Effect	Active	100%	Active	Non-Toxic	64 µg/mL	Active	Active	Active	Active	Activity [21]: inactive; Activity [22]: Non-Toxic; Activity [23]: Non-Toxic; Activity [24]: Active; Activity [25]: Active; HC50 at 1 h [26]: 1110 µg/mL; inhibition at 64 µg/mL [27]: 100%; Activity [28]: Non-Toxic; Activity [29]: Active; Activity [30]: Non-Toxic; MIC [31]: 4 µg/mL; Activity [32]: Non-Toxic; MIC [33]: 64 µg/mL; Activity [34]: Dose-Dependent Effect; Activity [35]: Active; Activity [36]: Non-Toxic; Activity [37]: Active
C=CCc1cccc(Oc2ccc(C(=O)CC)cc2)c1OCCC[N+](C)(C)CC(=O)NCCCCCC.[Br-]	Non-Toxic	100%	inactive	Active	Dose-Dependent Effect	16 µg/mL	2 µg/mL	Active	inactive	Active	Dose-Dependent Effect	Active	100%	Active	Non-Toxic	32 µg/mL	Active	Active	Active	Active	Activity [21]: inactive; Activity [22]: Non-Toxic; Activity [23]: Non-Toxic; Activity [24]: Active; Activity [25]: Active; HC50 at 1 h [26]: 916 µg/mL; inhibition at 64 µg/mL [27]: 100%; Activity [28]: Non-Toxic; Activity [29]: Active; Activity [30]: Non-Toxic; MIC [31]: 1 µg/mL; Activity [32]: Non-Toxic; MIC [33]: 32 µg/mL; Activity [34]: Dose-Dependent Effect; Activity [35]: Active; Activity [36]: Non-Toxic; Activity [37]: Active
